Measured values taken from ChEMBL document CHEMBL1201862, “PubChem BioAssay data set” (2004).
Active and inactive are the calls of the source.

Columns and labels:
[1] = biological target: T1, Heat shock factor protein 1 (Mus musculus, UniProt P38532); experiment: HSF1 potentiators in luciferase reporter cells, confirmation, cell-based, NIH3T3, luminescence, dose retest (AID 435004); type: functional;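 note: stress induced by proteasome inhibitor MG132 added 30 min after compound; luciferase reporter driven by HSF1 response element in NIH3T3 cells; actives raise luminescence as potentiators of the MG132 stress response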
T1 sequence (P38532 whole entry): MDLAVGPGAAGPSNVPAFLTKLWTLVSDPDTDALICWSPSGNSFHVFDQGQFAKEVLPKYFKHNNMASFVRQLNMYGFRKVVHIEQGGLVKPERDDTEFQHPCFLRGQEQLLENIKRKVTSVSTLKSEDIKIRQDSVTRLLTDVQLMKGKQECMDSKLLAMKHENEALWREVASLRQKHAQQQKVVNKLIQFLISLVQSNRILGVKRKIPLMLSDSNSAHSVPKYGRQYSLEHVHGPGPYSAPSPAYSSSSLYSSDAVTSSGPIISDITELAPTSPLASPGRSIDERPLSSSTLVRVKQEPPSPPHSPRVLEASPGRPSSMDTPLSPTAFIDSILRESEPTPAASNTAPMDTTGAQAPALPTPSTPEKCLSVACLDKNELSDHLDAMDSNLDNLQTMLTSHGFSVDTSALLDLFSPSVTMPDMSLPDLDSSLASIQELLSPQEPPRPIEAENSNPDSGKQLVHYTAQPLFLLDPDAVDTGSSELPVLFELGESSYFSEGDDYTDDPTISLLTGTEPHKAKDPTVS

[2] = biological target: T1, Heat shock factor protein 1; experiment: inhibition of MG132-induced HSE-luciferase signal, confirmation, cell-based, NIH3T3, luminescence, dose retest (AID 2382); type: functional;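 note: NIH3T3 fibroblasts with HSF1-driven luciferase reporter stressed by proteasome inhibitor MG132; luminescence from HSF1-driven luciferase expression after 8 hours of MG132 stress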
[3] = test system: H4; experiment: Luminescence Cell-Based Dose Response HTS to Identify Activators of 5'UTR Stem-Loop Driven Prion Protein mRNA Translation in H4 Neuroglioblastoma Cells. [Related pubchem assays: 1829 (Project Summary), 1814 (Primary HTS)]; type: functional; conditions: Homo sapiens
[4] = Luminescence Cell-Based Dose Confirmation HTS to Identify Activators of 5'UTR Stem-Loop Driven Alpha-Synuclein mRNA Translation in H4 Neuroglioblastoma Cells. [Related pubchem assays: 1829 (Project Summary), 1814 (Primary HTS)]; type: functional
[5] = Luminescence Cell-Based Dose Response HTS to Identify Activators of Luciferase Translation or Activity in H4 […] Cells. [Related pubchem assays: 1829 (Project Summary), 1814 (Primary HTS)]; type: functional
[6] = biological target: Cytochrome P450 2C19 (Homo sapiens, UniProt P33261); experiment: Cytochrome panel assay with activity outcomes. Panel member name: p450-cyp2c19 Compounds with AC50 equal or less than 10 uM are considered active; type: functional
[7] = biological target: Cytochrome P450 2C9 (Homo sapiens, UniProt P11712)
[8] = biological target: Cytochrome P450 3A4 (Homo sapiens, UniProt P08684);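 note: CYP3A4 tested as one member of a cytochrome P450 panel screen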
[9] = biological target: T2, Cytochrome P450 1A2 (Homo sapiens, UniProt P05177);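 note: PubChem cytochrome P450 panel assay, CYP1A2 panel member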
T2 sequence (P05177 whole entry): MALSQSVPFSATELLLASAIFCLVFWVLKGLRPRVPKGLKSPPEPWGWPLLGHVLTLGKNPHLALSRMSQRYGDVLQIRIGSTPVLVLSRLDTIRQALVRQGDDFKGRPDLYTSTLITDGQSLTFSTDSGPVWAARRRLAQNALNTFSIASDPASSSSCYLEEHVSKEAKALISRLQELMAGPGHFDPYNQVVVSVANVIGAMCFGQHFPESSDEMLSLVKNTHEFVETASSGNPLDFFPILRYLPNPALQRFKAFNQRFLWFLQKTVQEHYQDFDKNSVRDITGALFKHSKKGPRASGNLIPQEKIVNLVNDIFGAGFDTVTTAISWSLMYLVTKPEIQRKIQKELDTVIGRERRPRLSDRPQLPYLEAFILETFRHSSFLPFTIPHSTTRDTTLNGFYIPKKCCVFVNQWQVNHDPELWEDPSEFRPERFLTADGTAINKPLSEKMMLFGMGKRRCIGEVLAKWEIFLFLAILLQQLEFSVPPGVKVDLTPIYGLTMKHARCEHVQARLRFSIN

Cytochrome P450 3A4, sequence (P08684 whole entry): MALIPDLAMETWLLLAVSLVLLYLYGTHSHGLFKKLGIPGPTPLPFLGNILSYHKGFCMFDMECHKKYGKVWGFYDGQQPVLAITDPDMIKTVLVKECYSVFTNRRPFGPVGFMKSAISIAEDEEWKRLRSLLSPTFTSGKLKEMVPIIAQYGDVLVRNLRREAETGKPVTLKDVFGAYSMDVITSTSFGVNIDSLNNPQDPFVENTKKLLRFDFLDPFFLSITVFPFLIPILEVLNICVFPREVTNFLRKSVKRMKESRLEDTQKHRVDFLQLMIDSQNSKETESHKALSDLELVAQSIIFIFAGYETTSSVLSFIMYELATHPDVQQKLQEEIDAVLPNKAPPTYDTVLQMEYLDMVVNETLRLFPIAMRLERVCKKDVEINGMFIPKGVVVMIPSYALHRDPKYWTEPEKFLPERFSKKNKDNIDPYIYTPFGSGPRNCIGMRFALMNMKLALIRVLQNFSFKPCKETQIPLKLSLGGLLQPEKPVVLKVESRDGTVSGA
Cytochrome P450 2C19, sequence (P33261 whole entry): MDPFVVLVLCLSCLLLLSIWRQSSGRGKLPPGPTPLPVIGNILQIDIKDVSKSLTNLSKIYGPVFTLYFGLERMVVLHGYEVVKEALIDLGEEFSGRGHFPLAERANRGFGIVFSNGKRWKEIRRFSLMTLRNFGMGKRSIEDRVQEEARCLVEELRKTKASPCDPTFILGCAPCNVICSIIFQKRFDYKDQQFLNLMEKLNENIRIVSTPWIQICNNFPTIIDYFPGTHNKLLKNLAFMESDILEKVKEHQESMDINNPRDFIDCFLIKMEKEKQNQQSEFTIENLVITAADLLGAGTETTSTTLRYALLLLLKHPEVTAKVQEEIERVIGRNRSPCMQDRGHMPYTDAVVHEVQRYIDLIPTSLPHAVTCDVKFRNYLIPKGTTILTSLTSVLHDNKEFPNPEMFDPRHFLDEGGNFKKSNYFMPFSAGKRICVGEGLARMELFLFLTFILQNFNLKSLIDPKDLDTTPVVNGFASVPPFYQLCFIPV
Cytochrome P450 2C9, sequence (P11712 whole entry): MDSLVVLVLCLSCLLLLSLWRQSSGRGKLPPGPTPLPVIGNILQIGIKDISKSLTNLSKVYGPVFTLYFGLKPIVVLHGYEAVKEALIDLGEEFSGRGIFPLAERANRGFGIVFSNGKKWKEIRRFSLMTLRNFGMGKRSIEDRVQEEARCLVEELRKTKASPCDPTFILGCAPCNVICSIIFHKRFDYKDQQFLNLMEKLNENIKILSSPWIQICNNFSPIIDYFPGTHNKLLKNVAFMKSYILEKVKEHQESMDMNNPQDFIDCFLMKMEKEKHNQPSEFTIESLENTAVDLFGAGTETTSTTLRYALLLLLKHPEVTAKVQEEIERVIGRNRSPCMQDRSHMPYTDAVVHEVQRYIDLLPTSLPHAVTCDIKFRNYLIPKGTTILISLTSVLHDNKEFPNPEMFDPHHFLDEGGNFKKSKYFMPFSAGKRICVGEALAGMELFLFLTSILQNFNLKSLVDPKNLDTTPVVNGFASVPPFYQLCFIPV

With `Cc1cc(-c2nc3ncccc3o2)ccc1NC(=S)NC(=O)C(C)C` the EC50 [1] was > 260 µM (inactive).
In the case of `N#CC1=C(N)N2C(=C(C#N)C13CCCCC3)SC1CCCCC12O` (stereo not drawn), the EC50 [1] is reported as > 260 µM (inactive).
For `COC(=O)c1cccc(N2C(=O)C3CC=CCC3C2=O)c1` (stereo not drawn), the EC50 [2] was > 100 µM (not active).
With `Cc1nc(Nc2ccccc2)sc1C` the EC50 [2] was > 195 µM (not active).
With `O=C(Nc1cccc(Cl)c1)N(Cc1nc(O)c2ccccc2n1)C1CCCC1` the EC50 [1] was > 260 µM (inactive).
With `O=C(CCCc1ccccc1)N1CCN(C2CCCCC2)CC1` the EC50 [3] was 42.8 µM (active), the EC50 [4] was 13.5 µM (active) and the EC50 [5] was 13.7 µM (active).
For `Clc1ccccc1CSc1ncn(-c2ccccc2)n1`, the EC50 [3] was 36.9 µM (active), the EC50 [4] was 0.191 µM (active) and the EC50 [5] was 0.42 µM (active).
In the case of `CC1(C)CC(=O)C2=C(C1)N(c1ccc(F)cc1)C(N)=C(C#N)C2c1cccs1` (stereo not drawn), the AC50 ([6]; read-out: AC50) is reported as 39.8 µM (inconclusive) and the AC50 [7] is reported as 10 µM (inconclusive).
For `COc1ccccc1C(=O)OCC(=O)c1cccc([N+](=O)[O-])c1`, the EC50 [2] was > 195 µM (not active).
For `COc1ccccc1CNc1cc(-c2cccc(C#N)c2)ncn1`, the AC50 ([6]; read-out: AC50) was 6.31 µM (inconclusive) and the AC50 [8] was 25.1 µM (inconclusive).
In the case of `CCOC(=O)N1CCN(C(=O)CNS(=O)(=O)c2cccs2)CC1`, the AC50 [8] is reported as 14.1 µM (inconclusive) and the AC50 [7] is reported as 3.98 µM (inconclusive).
For `COc1ccc(C(=O)NC(C)c2cc(OC)c(OC)cc2Br)cc1` (stereo not drawn), the AC50 ([6]; read-out: AC50) was 39.8 µM (inconclusive).
With `CC1CCN(C(=O)Cn2nnc(-c3cccs3)n2)CC1` the EC50 [3] was 23.4 µM (active), the EC50 [4] was 4.67 µM (active) and the EC50 [5] was 59.7 µM (active).
For `CC(C)Sc1nc(NCc2ccco2)c2c3c(sc2n1)COC(C)(C)C3`, the EC50 [3] was 8.39 µM (active), the EC50 [4] was 14.6 µM (active) and the EC50 [5] was 17.2 µM (active).
With `O=C(OCc1nc2ccccc2s1)C1CCN(C2=NS(=O)(=O)c3ccccc32)CC1` the EC50 [3] was 21.9 µM (active), the EC50 [4] was 24 µM (active) and the EC50 [5] was 24.8 µM (active).
For `O=C(c1ccc(Oc2ccc(C(F)(F)F)cn2)cc1)N1CCN(c2ccccc2)CC1`, the AC50 [8] was 14.1 µM (inconclusive) and the AC50 [7] was 25.1 µM (inconclusive).
With `CCN(CC)P(=O)(NC(=O)c1cccn1C)N(CC)CC` the EC50 [2] was > 195 µM (not active).
In the case of `CS(=O)(=O)N1CCCC(C(=O)N2CCc3ccccc3C2)C1` (stereo not drawn), the AC50 ([6]; read-out: AC50) is reported as 35.5 µM (inconclusive), the AC50 [9] is reported as 25.1 µM (inconclusive) and the AC50 [8] is reported as 17.8 µM (inconclusive).
For `CCc1cccc(CC)c1NC(=O)CN(CC(=O)O)CC(=O)O` [ETIFENIN], the AC50 [6] was “inconclusive”.
For `CCOc1ccc(-n2ccnc2SCC(=O)Nc2nnc(C)s2)cc1`, the AC50 [9] was 25.1 µM (inconclusive) and the AC50 [7] was 11.2 µM (inconclusive).
In the case of `COc1ccc(NCc2nnc(SCC(=O)c3ccc(OC)cc3)n2C)cc1`, the EC50 [3] is reported as > 120 µM (not active), the EC50 [4] is reported as > 120 µM (not active) and the EC50 [5] is reported as > 120 µM (not active).
In the case of `COC(=O)C1CSC(C(=O)OC)N1C(=O)Nc1c(C)cccc1C` (stereo not drawn), the AC50 [7] is reported as 25.1 µM (inconclusive).
For `O=C(CCNC(=O)c1ccc(Cl)cc1)Nc1ncccc1O`, the EC50 [2] was > 195 µM (not active).
In the case of `OCCC1CN(Cc2cccc(-n3cccn3)c2)CCN1Cc1ccccc1` (stereo not drawn), the EC50 [2] is reported as > 195 µM (not active).
For `CC1(C)C(=O)C(c2ccccc2)=C2CN3C(=O)N(CCc4ccccc4)C(=O)C3(Cc3ccccc3)C=C21` (stereo not drawn), the AC50 [9] was 6.31 µM (inconclusive) and the AC50 [7] was 12.6 µM (inconclusive).
With `COC(=O)c1cc(OC)c(OC)cc1NC(=S)NC(=O)c1ccco1` the EC50 [1] was 28.2 µM (active).
In the case of `CCCN(CCC)CCCNC(=O)C[S+]([O-])Cc1nc(-c2ccc(OC)c(OC)c2)oc1C` (stereo not drawn), the EC50 [1] is reported as > 260 µM (inactive), the AC50 [9] is reported as 3.16 µM (inconclusive) and the AC50 [8] is reported as 7.94 µM (inconclusive). For the same compound, the AC50 [7] was 39.8 µM (inconclusive).
In the case of `Cc1cc(C)c(NC(=O)CSc2nnc(-c3ccncc3)n2Cc2ccco2)c(Cl)c1`, the EC50 [2] is reported as > 195 µM (not active).
In the case of `CC(C)c1cccc2nc3c(c([Si](C)(C)C(C)(C)C)c12)Cn1c-3cccc1=O`, the AC50 [9] is reported as 25.1 µM (inconclusive) and the AC50 [7] is reported as 39.8 µM (inconclusive).
